This is an account of results in patent US20250325670A1, “NOVEL BORON AGENT” (priority 2021, published 2025).

Data set [1] has as its system A549 cells (FRα(−)). The data set is described as follows: BNCT antitumor effect in vitro (thermal neutron irradiation, MTT survival rate). Format: cell-based, human. As to conditions: 25 ppm 10B, 3 hours, thermal neutron dose-dependent, MTT after 96 hours. The method, then:
(A) Human brain tumor cell U87MG (FRα(+)), (B) human lung cancer cell A549 (FRα(−)). The cells were cultured for 3 hours with an agent ^10B at a concentration of 25 ppm, followed by removal of the agent and irradiated.
Cells (A549 1000 cells/well or U-87 MG 500 cells/well) seeded in a 96 well plate were cultured together with PBC-IP and L-BPA-fructose at a concentration of 25 ppm [^10B] at 37° C. for 3 hours, and then unilaterally irradiated with thermal neutrons from one side of the plate for 12 minutes. Subsequently, the medium was replaced, the cells were cultured for 96 hours, and then an MTT assay was carried out to evaluate the survival rate of the cells (FIG. 3). The thermal neutron irradiation was carried out by using the irradiation facility of the Institute for Integrated Radiation and Nuclear Science, Kyoto University (KUR), and the cells after irradiation were cultured in the controlled area of KUR. In addition, the survival rate is calculated based on the following expression.

A short description of data set [2]: Changes in body weight after BNCT irradiation. The format is in vivo, mouse. Conditions: 25 mg (10B)/kg iv, neutron irradiated. Here is the method: As described in (A), the U-87 MG tumor-bearing mice were injected with 200 μL of a PBS solution of a boron compound (PBC-IP-HSA, L-BPA: 25 mg (^10B)/kg for each) through the tail vein. The whole mouse was placed in an acrylic mouse holder and fixed to a thermoplastic plate having a thickness of 5 mm. Three hours (L-BPA) or six hours (PBC-IP-HSA) after administration, the right thigh of the mouse was irradiated with a neutron in a dose range of 4.5 to 6.1×10^12 neutrons/cm^2 in the KUR reactor. The BNCT effect was evaluated based on the changes in tumor volume in the mouse (FIG. 4B). In order to determine the tumor volume, two perpendicular diameters of the tumor were measured with slide calipers and calculated by using the spherical volume expression {4/3π×(R/2)^3}. Here, R is the average of the longest dimension and the shortest dimension (each in millimeters) of the tumor.
In the irradiation experiment carried out in (B), changes in body weight after irradiation were measured.

In data set [3] the test system is A549, U87MG, C6, F98 cells. Briefly: Intracellular boron accumulation in various cells (ICP-AES). The format is cell-based, human, rat. As to conditions: 5 μg B/mL.
Protocol: F98 rat malignant glioblastoma cells were provided by Dr. Rolf Barth (Department of Pathology, The Ohio State University, Columbus, OH, US) and were cultured at 37° C. in 5% CO^2 by using Dulbecco's modified Eagle's medium (DMEM) supplemented with 10% fetal bovine serum (FBS) and 10% penicillin/streptomycin/amphotericin B. The F98 rat malignant glioblastoma cells were histologically characterized as anaplastic astrocytoma.
First, 5×10^5 cells were placed in a 100 mm dish (Becton Dickinson, Franklin Lakes, New Jersey) and cultured at 37° C. in 5% CO2 by using the medium described above. […] After that, the medium containing the boron compound was removed, and the cells were washed twice with 4% phosphate buffered saline (PBS) and then detached with a trypsin-ethylenediaminetetraacetic acid solution. After that, a medium was added, centrifugation (200×g, 5 minutes) was carried out twice, and cells were counted and finally sedimented. After that, the cells were digested with a 1 N nitric acid solution (Wako Pure Chemical Industries, Osaka Japan) overnight, and the amount of boron taken up was measured by inductively coupled plasma-atomic emission spectroscopy (ICP-AES) using an iCAP6300 emission spectrometer (Hitachi High-Technologies, Tokyo, Japan).
For data set [4], the system named is F98 malignant glioblastoma. Briefly: BNCT therapeutic effect (survival time) in F98 malignant glioblastoma cell-implanted rat brain tumor model. The format is in vivo. Conditions: after tumor implantation; BNCT with BPA (iv) or PBC-IP (CED). Here is the method:
Three hours after administration of PBC-IP (CED), neutron irradiation was carried out to verify the therapeutic effect of neutron capture therapy (FIG. 7). The brain tumor models were divided into an untreated group, a neutron irradiation only group, a BNCT with BPA (iv) group, a BNCT with local administration of PBC-IP (CED) group, and a PBC-IP (CED) plus BPA (iv) group to carry out a treatment experiment, and the survival times after tumor implantation were compared. The therapeutic effect of intravenous BPA as a control for BNCT treatment represented a significant prolongation of survival time with a median survival time of 37 days. […] The effect was even higher in the group that received treatment with PBC-IP (CED) […] plus intravenous BPA, indicating the antitumor effect of PBC-IP on a BPA-refractory tumor site. In the C6-implanted rat brain tumor model, the tumor boron concentration by PBC-IP (CED) was about 36 ppm, which was higher than that for F98.
In a BNCT experiment, 14 days after implantation of 10^3 F98 malignant glioblastoma cells, neutron irradiation was carried out by using KURRI. Malignant glioblastoma cell-bearing rats were randomly divided into 5 groups (groups 1 to 5) so that each group consisted of 6 to 10 rats. […] The therapeutic effect was evaluated by the survival times of all rats.

As for `N[C@@H](Cc1ccc(B(O)O)cc1)C(=O)O` [BPA], the “BNCT antitumor effect (cell survival rate)” value in data set [1] is given as “higher BNCT antitumor effect”. For the same molecule, the “changes in body weight after irradiation compared with the control group” value in data set [2] is on record as “no significant difference”. The “selective accumulation among the four types of cells” value in data set [3] was “selective accumulation in the A549 cells”. Also, the median survival time in data set [4] is recorded as 37 days.
